Laboratory results from US6743446B2, “Methods for stabilizing biologically active agents encapsulated in biodegradable controlled-release polymers” (The Ohio State University Research Foundation, priority 1999, dated 2004).
Counter-ions that a name gives are not always drawn.

What was measured:
Type in all cases: physicochemical
[1] = pH measurement of saturated basic salts in water; settings: excess basic salt suspended in water, 37° C., 7 days
Description: The suspension was then incubated at 37° C. for 7 days. The pH of the supernatant was determined with a Corning 430 pH meter (Corning Inc., NY).

[2] = pH of saturated basic salt suspension after addition of 1 N HCl; settings: acid added to the saturated suspension with excess salt, 37° C., 3 days
From the text: The difference of the neutralization effect from the salts is also reflected in the different water contents of their PLGA devices.

[3] = VCR and VBL stability and release in PLGA microspheres by HPLC
Description: All other reagents and solvents were of analytical grade or purer and purchased from commercial suppliers. Microspheres Preparation Microspheres were prepared by a standard oil-in-oil emulsion-solvent extraction method (17). […] The resulting solution or suspension was added drop-wise to 25 ml of oil (95% cottonseed oil and 5% Span 85 emulsifier) stirred at 500 rpm and room temperature. After 2.5 h of microsphere hardening. 40 ml of petroleum ether (bp: 50 to 100° C.) were added to the emulsion to extract CAN. The emulsion was stirred for additional 15 min, the particles were collected by filtration, and washed 3 times with petroleum ether. The hardened microspheres were flash-frozen with liquid nitrogen and lyophilized with a Labconco Freezone 6 system for 1 day.
The HPLC system consisted of the following: a 510 pump, a 717 Plus autosampler, and a 486 UV detector (waters, Milford, Mass.). […] The mobile phase was composed of aqueous solution of sodium phosphate (10 mM) and methanol 40:60 (v/v) (pH 7.0). For UV detection, the wavelength was set to 298 nm.
Drug release from microspheres was carried out in PBS (127 mM NaCl, 3 mM KCl, 8 mM Na2HPO4, 1 mM KH2PO4, pH 7.4) containing Tween 80 (0.02% w/w/) (PBST) at 37° C. under perfect sink conditions. […] Microspheres were weighed and dissolved in a 50% (v/v) ACN water solution. The precipitated polymer and salts were spun down by brief centrifugation. An aliquot of the supernatant containing drug was removed and analyzed by HPLC.

Compound	pH of saturated solution [1]	pH after addition of 100 μl of 1 N HCl [2]	drug degraded to the basic product during microsphere preparation ([3]; VCR PLGA microspheres with co-encapsulated base)	stability of encapsulated drug ([3]; PLGA (50% D,L lactide content) microspheres)
O=P([O-])([O-])[O-].O=P([O-])([O-])[O-].[Ca+2].[Ca+2].[Ca+2] [Ca3(PO4)2]	7.77	3.71	–	–
[OH-].[OH-].[Zn+2] [Zn(OH)2]	8.85	5.86	–	–
O=C([O-])[O-].[Zn+2] [ZnCO3]	7.34	5.36	3%	–
O=C([O-])[O-].[Ca+2] [CaCO3]	9.26	6.07	–	–
O=P([O-])([O-])[O-].O=P([O-])([O-])[O-].[Zn+2].[Zn+2].[Zn+2] [Zn3(PO4)2]	6.82	1.53	–	–
[Ca+2].[OH-].[OH-] [Ca(OH)2]	12.4	12.20	–	–
CC[C@]1(O)C[C@@H]2CN(CCc3c([nH]c4ccccc34)[C@@](C(=O)OC)(c3cc4c(cc3OC)N(C)[C@H]3[C@@](O)(C(=O)OC)[C@H](OC(C)=O)[C@]5(CC)C=CCN6CC[C@]43[C@@H]65)C2)C1 [VBL, vinblastine sulfate]	–	–	–	highly stabilized
